In brackets after ≈: the same amount, converted by molar mass.
Assays:
[1] = tested on: Escherichia coli ATCC 26; assay: Antimicrobial activity, agar dilution method (MIC), EC; type: cell-based; conditions: ATCC26, agar dilution, pH 7, read-out: MIC, EC
Text: | EC: Escherichia coli ATCC 26

[2] = tested on: Bacillus substilis NO. 10707; assay: Antimicrobial activity, agar dilution method (MIC), BS; type: cell-based; conditions: NO.10707, agar dilution, pH 7, read-out: MIC, BS
Text: | BS: Bacillus substilis NO. 10707

[3] = tested on: HeLa S3 cells; assay: HeLa S3 cell growth inhibition test (Neutral Red); type: cell-based; conditions: Homo sapiens, HeLa S3; 72 hours, 37° C.; read-out: HeLa S3 Cell Growth Inhibition Activity, IC50
Method: In each well of a 96-well microtiter plate was placed 0.1 mL of HeLa S3 cells having a concentration of 8×10^3 cells/mL and prepared in an MEM culture medium containing 10% fetal bovine serum and 2 mM glutamine. After the cells were incubated overnight at 37° C. in a carbon dioxide incubator, a test compound suitably diluted with a medium was added to the wells in an amount of 0.05 mL for each well. The cells were incubated at 37° C. for 72 hours in a carbon dioxide incubator. After the culture supernatant was removed, 0.1 mL of a culture medium containing 0.02% Neutral Red was added to each well. The cells were then incubated at 37° C. for 1 hour in a carbon dioxide incubator to dye the cells. After the culture supernatant was removed, each residue was rinsed once with physiological saline and the pigment was extracted with 0.001N hydrochloric acid/30% ethanol. The absorbance at 550 nm of each extract was measured with a microplate reader. The drug concentration required for the 50% inhibition of cell growth, which is referred to as IC50, was calculated by comparing the absorbance for untreated cells with those for cells treated with the drug in known concentrations.

[4] = tested on: Staphylococcus aureus ATCC 6538P; assay: Antimicrobial activity, agar dilution method (MIC), SA; type: cell-based; conditions: ATCC6538P, agar dilution, pH 7, read-out: MIC, SA
Text: | SA: Staphylococcus aureus ATCC 6538P

[5] = tested on: Klebisiella pneumoniae ATCC 10031; assay: Antimicrobial activity, agar dilution method (MIC), KP; type: cell-based; conditions: agar dilution, pH 7; read-out: MIC, KP
Text: | KP: Klebisiella pneumoniae ATCC 10031

[6] = tested on: Sarcoma 180 mouse solid tumor; assay: Antitumor activity against Sarcoma 180 mouse solid tumor; type: in vivo, male ddY mice; conditions: Sarcoma-180, iv, 168 h, single i.v., tumor volume on day 7 from transplant, read-out: T/C (tumor volume ratio treated/control)
Method: To a ddY mouse were intraperitoneally transplanted 5×10^6 sarcoma 180 cells. On the seventh day from the transplant, the cells were collected from the ascites, washed once with sterilized physiological saline, and then diluted with sterilized physiological saline to prepare a cell suspension having a concentration of 5×10^7 cells/mL. This suspension was transplanted in an amount of 0.01 mL to a subcutaneous part of the right axilla of each of male ddY mice each weighing 20±1 g.
A test compound was dissolved in physiological saline containing polyoxyethylene sorbitan monolaurate. At 24 hours after the tumor transplant, 0.2 mL of the solution was intravenously administered to the tail of each of a group of five mice.

[7] = tested on: Enterococcus hirae ATCC 10541; conditions: pH 7
Method: Antimicrobial activity was determined by the agar dilution method using a culture medium (pH 7) prepared by dissolving 3 g of Bacto-Tryptone (manufactured by Difco, Co.), 3 g of meat extract, 1 g of yeast extract, 1 g of glucose, and 16 g of agar in 1 l of water.
EH: Enterococcus hirae ATCC 10541

[8] = tested on: various bacteria; conditions: background, Japanese Published Unexamined Patent Application No. 112988/89; cited from earlier work
[9] = background, Japanese Published Unexamined Patent Application No. 112988/89; cited from earlier work

| Structure (SMILES) | MIC [2] [µg/mL] | IC50 [3] [nM] | MIC [4] [µg/mL] | MIC [5] [µg/mL] | MIC, EH [7] [µg/mL] | MIC [1] [µg/mL] | response vs control in vivo at 4 mg/kg ([6]; 4.0 mg/kg) [%] | response vs control in vivo at 8 mg/kg ([6]; 8.0 mg/kg) [%] | response vs control in vivo at 16 mg/kg ([6]; 16 mg/kg) [%] | antimicrobial activity [8] | antitumor activity [9] |
| --- | --- | --- | --- | --- | --- | --- | --- | --- | --- | --- | --- |
| COCCOCCOCC(=O)OC1/C=C(\C)CCC2(CC(=O)NC(C)c3nc(cs3)/C=C\C=C\C1=O)[S+]([O-])SC(=O)C2(C)O (stereo not shown) [Compound 2] | 0.13 (≈ 0.194 µM) | 25 | 0.13 (≈ 0.194 µM) | 0.23 (≈ 0.343 µM) | 0.23 (≈ 0.343 µM) | 1.8 (≈ 2.68 µM) | 30 |  |  |  |  |
| COCCOCCOCC(=O)OCCOCCOCCOCCOCC(=O)OC1/C=C(\C)CCC2(C(C)(O)C(=O)SCc3oc(=O)oc3C)CC(=O)N(C(C)c3nc(cs3)/C=C\C=C\C1=O)[S+]2[O-] (stereo not shown) [Compound 39] | 2.6 (≈ 2.56 µM) |  | 5.2 (≈ 5.11 µM) | 2.6 (≈ 2.56 µM) | 1.3 (≈ 1.28 µM) |  |  |  | 38 |  |  |
| C/C1=C\C(O)C(=O)/C=C/C=C\c2csc(n2)C(C)NC(=O)CC2(CC1)[S+]([O-])SC(=O)C2(C)O (stereo not shown) [DC107] |  |  |  |  |  |  |  |  |  | antimicrobial activity against various bacteria | antitumor activity |

Now from value to molecule, other results behind:

| MIC [2] [µg/mL] | IC50 [3] [nM] | MIC [4] [µg/mL] | MIC [5] [µg/mL] | MIC, EH [7] [µg/mL] | Structure (SMILES) | MIC [1] [µg/mL] | response vs control in vivo at 4 mg/kg ([6]; 4.0 mg/kg) [%] | response vs control in vivo at 8 mg/kg ([6]; 8.0 mg/kg) [%] | response vs control in vivo at 16 mg/kg ([6]; 16 mg/kg) [%] | antimicrobial activity [8] | antitumor activity [9] |
| --- | --- | --- | --- | --- | --- | --- | --- | --- | --- | --- | --- |
| 42 (≈ 53.6 µM) | 30 | 42 (≈ 53.6 µM) | 42 (≈ 53.6 µM) | 42 (≈ 53.6 µM) | COCCOCCOCC(=O)OC1/C=C(\C)CCC2(C(C)(O)C(=O)SCc3oc(=O)oc3C)CC(=O)N(C(C)c3nc(cs3)/C=C\C=C\C1=O)[S+]2[O-] (stereo not shown) [Compound 12] | 4.2 (≈ 5.36 µM) |  | 39 |  |  |  |
| 2.6 (≈ 2.99 µM) | 35 | 5.2 (≈ 5.97 µM) |  | 2.6 (≈ 2.99 µM) | COCCOCCOCCOCCOCC(=O)OC1/C=C(\C)CCC2(C(C)(O)C(=O)SCc3oc(=O)oc3C)CC(=O)N(C(C)c3nc(cs3)/C=C\C=C\C1=O)[S+]2[O-] (stereo not shown) [Compound 14] |  |  |  |  |  |  |

From US6080771A, “DC107 derivatives” (Kyowa Hakko Kogyo Co., Ltd., priority 1996, dated 2000)
